Data as given in patent publication US20210008161A1, “METHODS AND COMPOSITIONS FOR IMPROVED HOMOLOGY DIRECTED REPAIR” (CRISPR THERAPEUTICS AG, priority 2019, published 2021).

Key:
CD34-expressing LT-HSPCs = assay: HDR insertion of AAV-delivered GFP donor into HBB locus (GFP fluorescence); type: cell-based, human
Protocol: Frozen CD34-expressing LT-HSPCs derived from plerixafor (i.e., Mozibil®)+GCSF-dual mobilized peripheral blood obtained from healthy human donors were purchased from a commercial vendor. LT-HSPCs were maintained in culture media comprised of the reagents shown in Table 4 and were incubated at 37° C., 5% carbon dioxide, 4% oxygen. […] 2×10^5 cells were edited with 3 μg Cas9 and 3 μg gRNA. The target gene sequence (including target sequence with PAM), R02 spacer sequence, and R02 sgRNA sequence are identified in Table 3.
The cells were transfected with a dsDNA homology donor encoding GFP under a SFFV promoter (SEQ ID NO: 60) that was delivered by AAV (SEQ ID NO: 56). […] The HDR efficiency was determined by measuring the level of GFP fluorescence in the cells following electroporation. To determine the effect of 53BP1 inhibition on HDR efficiency, the 53BP1 inhibitor i53 was introduced as an mRNA-encoded protein to the cells during electroporation with Cas9/gRNA RNP and AAV DNA that serves as a donor for homology directed repair.
The effect of 53BP1 inhibition on HDR efficiency was compared to other mRNA-encoded proteins that inhibit the NHEJ pathway. These included the proteins CYREN1 and CYREN2 that inhibit Ku70/80, a heterodimer that binds DNA blunt ends to prevent processing of 3′ single-stranded DNA tails necessary for HDR repair. Cells were electroporated with RNP, an AAV-GFP homology donor and mRNA encoding either i53 (mRNA ORF shown in SEQ ID NO: 69), CYREN1, or CYREN2.
The effect of treatment with i53 and Nu7441 was compared for improving efficiency of HDR repair of the HBB locus. Cells were treated with different doses of Nu7441 or with mRNA encoding i53 (ORF shown by SEQ ID NO: 69).

HEK293 T cells [1] = assay: HDR gene-editing at GSD1a locus with ssODN homology donors; type: cell-based, human; conditions: for HDR efficiency: 1.25 μM SCR7 or 10 μM RS-1, FIG. 3
Protocol: 2×10^5 cells were edited with 1 μM Cas9 and 1.5 μM gRNA. The cells were transfected with two different ssODNs homology donors: 93-50 (SEQ ID NO: 39) or 25-100 (SEQ ID NO: 40). These two ssODN donors contain homology arms spanning both sides of the double-stranded break induced by the Cas9-guide and facilitate correction of a point mutation in the G6PC gene sequence by HDR. Cells were edited with 100 μM ssODN. The cells were treated with 2.5 μM Nu7441, 1.25 μM SCR7, or 10 μM RS-1 and the effect on HDR efficiency was evaluated.

HEK293 T cells [2] = assay: GFP to BFP fluorescent reporter assay of HDR efficiency (AAVS1 locus); type: cell-based, human
Protocol: The effect of DNA PK inhibition by Nu7441 correction of a DSB by the NHEJ pathway (e.g., introduce an indel at the DSB site) or HDR pathway (e.g., introduce a gene mutation encoded by a homology donor at the DSB site) was assessed using the reporter system described in Example 1. In this case gene-editing was evaluated in HEK293 T cells expressing GFP in the AAVS1 locus. To introduce a gene edit that converts GFP to BFP, cells were electroporated with ribonucleoprotein (RNP) comprised of Cas9 and gRNA1 (GFP target sequence identified by SEQ ID NO: 9; sgRNA spacer sequence identified by SEQ ID NO: 10) or gRNA2 (GFP target sequence identified by SEQ ID NO: 11; sgRNA spacer identified by SEQ ID NO: 12) that targets the GFP gene encoded in the AAVS1 locus. The cells were also transfected with ssODNs that encoded the gene correction necessary to convert GFP to BFP and homology arms complimentary to the sequence upstream and downstream of the target gene cut site. The efficiency of HDR repair was determined by measuring the level of cell BFP fluorescence. The efficiency of cutting (indel information) was monitored by TIDE analysis.
Shown in FIGS. 2A-2B is a comparison of HDR editing efficiency for cells treated with Nu7441, SCR7, or RS-1. Shown in FIG. 2A are cells were electroporated with RNP comprising Cas9 and gRNA1 (GFP target sequence shown in SEQ ID NO: 9; sgRNA spacer sequence identified by SEQ ID NO: 10). 2×10^5 cells were edited with 1 μM Cas9 and 1.5 μM gRNA1. The cells were transfected with four different ssODNs. These included ssODN 1067 (SEQ ID NO: 29) and ssODN 1069 (SEQ ID NO: 31) that are complimentary to the DNA strand containing the PAM sequence and ssODN 1068 (SEQ ID NO: 30) and ssODN 1070 (SEQ ID NO: 32) that are complimentary to the DNA strand not containing the PAM sequence. Cells were edited with 100 μM ssODN. A concentrated stock solution of each inhibitor was prepared in DMSO and diluted to a final concentration of 2.5 μM Nu7441, 1.25 μM SCR7, or 10 μM RS-1. HDR efficiency was compared relative to treatment with DMSO alone or to treatment with RNP-only.
Shown in FIG. 2B are cells were electroporated with RNP comprising Cas9 and gRNA2 (GFP target sequence shown in SEQ ID NO: 11; sgRNA spacer sequence shown in SEQ ID NO: 12). The cells were transfected with four different ssODNs. These included ssODN 1061 (SEQ ID NO: 33) and ssODN 1063 (SEQ ID NO: 35) that are complimentary to the DNA strand containing the PAM sequence and ssODN 1062 (SEQ ID NO: 34) and ssODN 1064 (SEQ ID NO: 36) that are complimentary to the DNA strand not containing the PAM sequence.

[3] = system: human LT-HSPCs administered to cKit mice; assay: Erythroid cell enucleation in mouse bone marrow; type: in vivo; conditions: bone marrow 16 weeks; vs cells treated with RNP-only or AAV-only; FIG. 28
Protocol: The functionality of the hematopoietic compartment in recipient mice was evaluated by measuring erythroid cell enucleation in bone marrow collected at 16 weeks post-engraftment. Mammalian erythrocytes extrude their nucleus prior to entering circulation. Human CD34-expressing LT-HSPCs are expected to differentiate into erythrocytes following engraftment, however the efficiency of enucleation can be low. Assessment of erythroid cell enucleation provides a measure of the ability of edited CD34 expressing cells to differentiate into erythroid cells compared to the unedited controls (i.e., ability to differentiate into functional cell types). Percent enucleation was compared for LT-HSPCs gene edited with Cas9/gRNA RNP and AAV given pre-EP or post-EP. […] Additionally, levels of enucleation were compared for LT-HSPCs gene edited with RNP+AAV in the presence of i53 or Nu7441.

[4] = 0.75 μg mRNA encoding i53, 5 μM Nu7441, control mRNA DM, FIG. 6C
[5] = gRNA1, ssODN 1067-1070, 2.5 μM Nu7441, 1.25 μM SCR7 or 10 μM RS-1, vs DMSO, FIG. 2A

Compound	HDR efficiency (CD34-expressing LT-HSPCs; [4])	fold increase in HDR efficiency (HEK293 T cells [1]; 2.5 μM Nu7441, over DMSO alone, FIG. 3)	HDR efficiency (HEK293 T cells [2]; [5])	HDR efficiency (HEK293 T cells [2]; gRNA2, ssODN 1061-1064, 2.5 μM Nu7441)	levels of erythroid cell enucleation [3]	HDR efficiency (HEK293 T cells [1])	HDR efficiency at each dose (CD34-expressing LT-HSPCs; 0.5, 1, and 2 μg i53 mRNA, FIG. 6A)	fold increase in HDR efficiency (CD34-expressing LT-HSPCs; GFP donor into HBB locus, mRNA encoding i53, over RNP+AAV-only, FIG. 6A)	HDR efficiency (CD34-expressing LT-HSPCs; mRNA-encoded proteins, i53 mRNA at 0.3 μg or 1 μg, over RNP+AAV-only, FIG. 6B)
O=c1cc(N2CCOCC2)oc2c(-c3cccc4c3sc3ccccc34)cccc12 [Nu7441]	comparable increase	approximately 1.7 fold	improved	improved	similar				
O=C(Nc1ccc(Br)cc1)c1ccc(Br)c(S(=O)(=O)NCc2ccccc2)c1 [RS-1]			no improvement			no effect			
O=c1[nH]c(=S)[nH]c(N=Cc2ccccc2)c1N=Cc1ccccc1 [SCR7]			no improvement			no effect			
i53: polypeptide inhibitor of 53BP1 (SEQ ID NO: 70), introduced as an mRNA-encoded protein (ORF SEQ ID NO: 69)	comparable increase				similar		improved	approximately 1.3 fold	increased
